Reference: patent publication US11753407B2, “Compounds for treating spinal muscular atrophy” (PTC Therapeutics, Inc., priority 2012, dated 2023)

Assays:
[1] = system: Smn protein in SMA patient fibroblast cells (GM03813); assay: Smn protein assay in cultured cells (SMN HTRF); type: cell-based, human; conditions: SMA patient fibroblast cells, 48 hours; for EC1.5x for Smn protein expression: 7-point concentration curve, SMN HTRF, concentration producing 1.5 times Smn protein vs DMSO vehicle control; for maximum fold (Fold) increase of Smn protein: 7-point concentration data, fold relative to vehicle control
Summary of the method: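 Fibroblasts, SMA patient; 5,000 cells/well; 7-pt curve, 3.16-fold serial dilution; 48 h, 37 °C, 5% CO2; RIPA lysis 1 h RT; anti-SMN d2 + kryptate overnight RT; HTRF 665/620 nm; fold vs DMSO; EC1.5×, max fold.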

[2] = system: SMN2 minigene mRNA (SMN2-A minigene) in HEK293H cells; assay: SMN2 minigene mRNA splicing RT-qPCR assay in cultured cells; type: cell-based, human; conditions: Homo sapiens, HEK293-H; concentration increasing full length SMN2 mRNA 1.5-fold relative to vehicle-treated cells; HEK293H cells with SMN2-A minigene, 24 hours, 7-point concentration data; read-out: EC1.5x for production of full length SMN2 mRNA
Summary of the method: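 Stable SMN2-A minigene HEK293H; cpd 7-pt 3.16-fold series, 200× in DMSO, 24 h, 37 °C, n=2. Lysates → multiplex RT-qPCR (minigene FL + GAPDH), efficiency-corrected ΔΔCt vs vehicle. EC1.5× = 1.5-fold FL mRNA gain.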

melting point [°C] | Structure (SMILES) | EC1.5x for Smn protein expression [1] | maximum fold (Fold) increase of Smn protein [1] | EC (1.5-fold increase) [2] [µM]
216 to 218 | CCc1nc(C)cn2nc(-c3cc(=O)n4cc(N5CCC(C)(N)CC5)ccc4n3)cc12 [Compound 737, 7-(4-amino-4-methylpiperidin-1-yl)-2-(4-ethyl-6-methylpyrazolo[1,5-a]pyrazin-2-yl)-4H-pyrido[1,2-a]pyrimidin-4-one] | **** (an EC1.5x≤0.3 μM is indicated by four stars (****)) | ***** (a fold increase >1.65 is indicated by five stars (*****)) | < 0.1
194 to 196 | Cc1cc(-c2cc(=O)n3cc(N4CCNCC4)ccc3n2)cc2cn(C)nc12 [Compound 738, 2-(2,7-dimethyl-2H-indazol-5-yl)-7-(piperazin-1-yl)-4H-pyrido[1,2-a]pyrimidin-4-one] | **** (an EC1.5x≤0.3 μM is indicated by four stars (****)) | ***** (a fold increase >1.65 is indicated by five stars (*****)) | < 0.1
228 to 230 | Cc1cc(-c2cc(=O)n3cc(C4CCNCC4)ccc3n2)cc2cn(C)nc12 [Compound 739, 2-(2,7-dimethyl-2H-indazol-5-yl)-7-(piperidin-4-yl)-4H-pyrido[1,2-a]pyrimidin-4-one] | **** (an EC1.5x≤0.3 μM is indicated by four stars (****)) | ***** (a fold increase >1.65 is indicated by five stars (*****)) | < 0.1
242 to 244 | Cc1cn2nc(-c3cc(=O)n4cc(C#CCN)ccc4n3)cc2c(C)n1 [Compound 740, 7-(3-aminoprop-1-yn-1-yl)-2-(4,6-dimethylpyrazolo[1,5-a]pyrazin-2-yl)-4H-pyrido[1,2-a]pyrimidin-4-one] | *** (an EC1.5× between >0.3 μM and ≤1 μM is indicated by three stars (***)) | ***** (a fold increase >1.65 is indicated by five stars (*****)) | 0.3 to 1
170 to 172 | Cc1cc(-c2cc(=O)n3cc(N4CCN[C@H](C)C4)ccc3n2)cc2cn(C)nc12 [Compound 741, 2-(2,7-dimethyl-2H-indazol-5-yl)-7-[(3R)-3-methylpiperazin-1-yl]-4H-pyrido[1,2-a]pyrimidin-4-one] | **** (an EC1.5x≤0.3 μM is indicated by four stars (****)) | ***** (a fold increase >1.65 is indicated by five stars (*****)) | < 0.1
218 to 221 | Cc1cn2nc(-c3cc(=O)n4cc(C5=CC(C)(C)NC(C)(C)C5)ccc4n3)cc2c(C)n1 [Compound 744, 2-(4,6-dimethylpyrazolo[1,5-a]pyrazin-2-yl)-7-(2,2,6,6-tetramethyl-1,2,3,6-tetrahydropyridin-4-yl)-4H-pyrido[1,2-a]pyrimidin-4-one] | *** (an EC1.5× between >0.3 μM and ≤1 μM is indicated by three stars (***)) | *** (a fold increase between >1.35 and ≤1.5 is indicated by three stars (***)) | < 0.1

Further lines, the compound ahead of its results:

Structure (SMILES) | melting point [°C] | EC1.5x for Smn protein expression [1] | maximum fold (Fold) increase of Smn protein [1] | EC (1.5-fold increase) [2] [µM]
CCCc1nc(C)cn2nc(-c3cc(=O)n4cc(N5CCN[C@H](C)C5)ccc4n3)cc12 [Compound 727, 7-[(3R)-3-methylpiperazin-1-yl]-2-(6-methyl-4-propylpyrazolo[1,5-a]pyrazin-2-yl)-4H-pyrido[1,2-a]pyrimidin-4-one] | 195 to 197 | **** (an EC1.5x≤0.3 μM is indicated by four stars (****)) | ***** (a fold increase >1.65 is indicated by five stars (*****)) | < 0.1
CCCc1nc(C)cn2nc(-c3cc(=O)n4cc(N5CCN[C@@H](C)C5)ccc4n3)cc12 [Compound 728, 7-[(3S)-3-methylpiperazin-1-yl]-2-(6-methyl-4-propylpyrazolo[1,5-a]pyrazin-2-yl)-4H-pyrido[1,2-a]pyrimidin-4-one] | 195 to 197 | **** (an EC1.5x≤0.3 μM is indicated by four stars (****)) | ***** (a fold increase >1.65 is indicated by five stars (*****)) | 0.1 to 0.3
CCCc1nc(C)cn2nc(-c3cc(=O)n4cc(N5C[C@@H](C)N[C@@H](C)C5)ccc4n3)cc12 [Compound 729, 7-[(3R,5S)-3,5-dimethylpiperazin-1-yl]-2-(6-methyl-4-propylpyrazolo[1,5-a]pyrazin-2-yl)-4H-pyrido[1,2-a]pyrimidin-4-one] | 249 to 251 | *** (an EC1.5× between >0.3 μM and ≤1 μM is indicated by three stars (***)) | ***** (a fold increase >1.65 is indicated by five stars (*****)) | 0.1 to 0.3
Cc1cn2cc(-c3cc(=O)n4cc(N5CCN(C(C)C)[C@H](C)C5)ccc4n3)cc2c(C)n1 [Compound 730, 2-(1,3-dimethylpyrrolo[1,2-a]pyrazin-7-yl)-7-[(3R)-3-methyl-4-(propan-2-yl)piperazin-1-yl]-4H-pyrido[1,2-a]pyrimidin-4-one] | 249 to 251 | **** (an EC1.5x≤0.3 μM is indicated by four stars (****)) | ***** (a fold increase >1.65 is indicated by five stars (*****)) | < 0.1
Cc1cn2cc(-c3cc(=O)n4cc(N5CCC(C)(N)CC5)ccc4n3)cc2c(C)n1 [Compound 731, 7-(4-amino-4-methylpiperidin-1-yl)-2-(1,3-dimethylpyrrolo[1,2-a]pyrazin-7-yl)-4H-pyrido[1,2-a]pyrimidin-4-one] | 244 to 246 | **** (an EC1.5x≤0.3 μM is indicated by four stars (****)) | ***** (a fold increase >1.65 is indicated by five stars (*****)) | < 0.1
CC[C@H]1CN(c2cc(C)c3nc(-c4cc5c(C)nc(C)cn5n4)cc(=O)n3c2)CCN1 [Compound 732, 2-(4,6-dimethylpyrazolo[1,5-a]pyrazin-2-yl)-7-[(3S)-3-ethylpiperazin-1-yl]-9-methyl-4H-pyrido[1,2-a]pyrimidin-4-one] | 243 to 251 | *** (an EC1.5× between >0.3 μM and ≤1 μM is indicated by three stars (***)) | **** (a fold increase between >1.5 and ≤1.65 is indicated by four stars (****)) | 0.3 to 1
Cc1cn2cc(-c3cc(=O)n4cc(N5CCNCC5)ccc4n3)cc(C(F)(F)F)c2n1 [Compound 733, 2-[2-methyl-8-(trifluoromethyl)imidazo[1,2-a]pyridin-6-yl]-7-(piperazin-1-yl)-4H-pyrido[1,2-a]pyrimidin-4-one] | 325 to 328 | **** (an EC1.5x≤0.3 μM is indicated by four stars (****)) | ***** (a fold increase >1.65 is indicated by five stars (*****)) | < 0.1
Cc1cn2cc(-c3cc(=O)n4cc(N5CCN[C@H](C)C5)ccc4n3)cc(C(F)(F)F)c2n1 [Compound 734, 7-[(3R)-3-methylpiperazin-1-yl]-2-[2-methyl-8-(trifluoromethyl)imidazo[1,2-a]pyridin-6-yl]-4H-pyrido[1,2-a]pyrimidin-4-one] | 303 to 306 | **** (an EC1.5x≤0.3 μM is indicated by four stars (****)) | ***** (a fold increase >1.65 is indicated by five stars (*****)) | < 0.1
Cc1cn2cc(-c3cc(=O)n4cc(N5CCN[C@@H](C)C5)ccc4n3)cc(C(F)(F)F)c2n1 [Compound 735, 7-[(3S)-3-methylpiperazin-1-yl]-2-[2-methyl-8-(trifluoromethyl)imidazo[1,2-a]pyridin-6-yl]-4H-pyrido[1,2-a]pyrimidin-4-one] | > 320 | **** (an EC1.5x≤0.3 μM is indicated by four stars (****)) | **** (a fold increase between >1.5 and ≤1.65 is indicated by four stars (****)) | < 0.1
Cc1cn2cc(-c3cc(=O)n4cc(N5C[C@@H](C)N[C@@H](C)C5)ccc4n3)cc(C(F)(F)F)c2n1 [Compound 736, 7-[(3R,5S)-3,5-dimethylpiperazin-1-yl]-2-[2-methyl-8-(trifluoromethyl)imidazo[1,2-a]pyridin-6-yl]-4H-pyrido[1,2-a]pyrimidin-4-one] | 293 to 296 | **** (an EC1.5x≤0.3 μM is indicated by four stars (****)) | ***** (a fold increase >1.65 is indicated by five stars (*****)) | < 0.1
Cc1cn2cc(-c3cc(=O)n4cc(C5=CCNCC5)ccc4n3)cc2c(C)n1 [Compound 743, 2-(1,3-dimethylpyrrolo[1,2-a]pyrazin-7-yl)-7-(1,2,3,6-tetrahydropyridin-4-yl)-4H-pyrido[1,2-a]pyrimidin-4-one] | 189 to 191 | **** (an EC1.5x≤0.3 μM is indicated by four stars (****)) | ***** (a fold increase >1.65 is indicated by five stars (*****)) | < 0.1
